The text below walks through data of patent US9512107B2, “Therapeutically active compositions and their methods of use” (Agios Pharmaceuticals, Inc., priority 2012, dated 2016).

Where a chain is given by its changes, count along the chain named.

The subject of test [1] is U87MG pLVX-IDH2 R140Q-neo cells. Nature of the test: U87MG pLVX-IDH2 R140Q-neo cell based assay, 2-HG in media by LC-MS at 48 hours. As to conditions: Homo sapiens, U-87 MG. The method, boiled down: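 2-HG secreted into the medium was measured by LC-MS after 48 h of compound treatment (0.2% DMSO final) of U87MG pLVX-IDH2 R140Q-neo cells in DMEM/10% FBS. The same wells were assayed at 72 h by CellTiter-Glo luminescence for effects on growth.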

Test [2] has as its target T1, IDH2 R172K (Homo sapiens, UniProt P48735, R172K).
T1 sequence (P48735 40-452 R172K): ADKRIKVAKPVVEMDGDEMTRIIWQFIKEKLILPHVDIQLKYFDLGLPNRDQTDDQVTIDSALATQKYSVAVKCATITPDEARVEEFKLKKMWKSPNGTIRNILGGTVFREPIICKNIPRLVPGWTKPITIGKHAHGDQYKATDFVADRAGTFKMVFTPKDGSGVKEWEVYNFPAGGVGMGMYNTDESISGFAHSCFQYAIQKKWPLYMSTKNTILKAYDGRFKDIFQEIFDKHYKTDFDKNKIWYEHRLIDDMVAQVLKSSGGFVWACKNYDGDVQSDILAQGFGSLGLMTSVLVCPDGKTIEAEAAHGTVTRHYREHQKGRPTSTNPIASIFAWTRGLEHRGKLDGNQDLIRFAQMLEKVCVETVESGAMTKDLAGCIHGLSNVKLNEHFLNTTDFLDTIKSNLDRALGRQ
Nature of the test: IDH2 R172K enzymatic assay (NADPH cofactor depletion, diaphorase/resazurin readout). The following applies: read-out: Enz R172K. It is filed as biochemical. The essentials:
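Residual NADPH is read out as resorufin fluorescence after quenching with 36 μg/ml diaphorase and 60 μM resazurin in stop mix. The stop follows a 1 h room-temperature reaction started by a substrate mix of NADPH (50 μM) and α-KG (6.3 mM), with compound preincubated with enzyme for 1 h beforehand.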
For orientation: Resazurin is reduced to fluorescent resorufin, in cell work by metabolically active cells.

For test [3], the target named is T2, IDH2 R140Q (Homo sapiens, UniProt P48735, R140Q).
T2 sequence (P48735 40-452 R140Q): T1 sequence (P48735 40-452 R172K) with R101Q, K133R
Nature of the test: IDH2 R140Q enzymatic assay (cofactor depletion, similar format). The format is biochemical. As to conditions: read-out: Enz R140Q.

As for `CC(C)(C)Nc1nc(Nc2ccnc(C3(C#N)CC3)c2)nc(-c2cccc(C(C)(F)F)n2)n1` [Compound 606, 1-(4-((4-(tert-butylamino)-6-(6-(1,1-difluoroethyl)pyridin-2-yl)-1,3,5-triazin-2-yl)amino)pyridin-2-yl)cyclopropanecarbonitrile], the IC50 in test [1] is less than 100 nM; in test [2], less than 100 nM; in test [3] it was 100 to 1000 nM.

For `CS(=O)(=O)c1cccc(Nc2nc(NCC3CC3)nc(-c3cccc(C(F)(F)F)n3)n2)c1` [Compound 607, N2-(cyclopropylmethyl)-N4-(3-(methylsulfonyl)phenyl)-6-(6-(trifluoromethyl)pyridin-2-yl)-1,3,5-triazine-2,4-diamine], the IC50 in test [1] was less than 100 nM; in test [2] it was 100 to 1000 nM; in test [3], 100 to 1000 nM.

Turning to `CC(C)(C)Nc1nc(Nc2ccnc(C3(C#N)CC3)c2)nc(-c2cccc(C(F)(F)F)n2)n1` [Compound 608, 1-(4-((4-(tert-butylamino)-6-(6-(trifluoromethyl)pyridin-2-yl)-1,3,5-triazin-2-yl)amino)pyridin-2-yl)cyclopropanecarbonitrile], the IC50 in test [1] was less than 100 nM; in test [2], less than 100 nM; in test [3] it was 100 to 1000 nM.

With `CC(F)(F)c1cccc(-c2nc(NCC3CC3)nc(Nc3cc(Cl)cc(S(C)(=O)=O)c3)n2)n1` [Compound 609, N2-(3-chloro-5-(methylsulfonyl)phenyl)-N4-(cyclopropylmethyl)-6-(6-(1,1-difluoroethyl)pyridin-2-yl)-1,3,5-triazine-2,4-diamine], the IC50 in test [1] is less than 100 nM; in test [2], less than 100 nM; in test [3], 100 to 1000 nM.

Turning to `CC(F)(F)c1cc(Nc2nc(NCC3CC3)nc(-c3cccc(C(C)(F)F)n3)n2)ccn1` [Compound 610, N2-(cyclopropylmethyl)-6-(6-(1,1-difluoroethyl)pyridin-2-yl)-N4-(2-(1,1-difluoroethyl)pyridin-4-yl)-1,3,5-triazine-2,4-diamine], the IC50 in test [1] is less than 100 nM; in test [2] it was less than 100 nM; in test [3] it was 100 to 1000 nM.

For `CC(F)(F)c1cccc(-c2nc(NCC3CC3)nc(Nc3cccc(S(C)(=O)=O)c3)n2)n1` [Compound 611, N2-(cyclopropylmethyl)-6-(6-(1,1-difluoroethyl)pyridin-2-yl)-N4-(3-(methylsulfonyl)phenyl)-1,3,5-triazine-2,4-diamine], the IC50 was less than 100 nM in test [1], 100 to 1000 nM in test [2] and 100 to 1000 nM in test [3].

As for `CC(F)(F)c1cccc(-c2nc(NCC3CC3)nc(Nc3cc(F)cc(S(C)(=O)=O)c3)n2)n1` [Compound 612, N2-(cyclopropylmethyl)-6-(6-(1,1-difluoroethyl)pyridin-2-yl)-N4-(3-fluoro-5-(methylsulfonyl)phenyl)-1,3,5-triazine-2,4-diamine], the IC50 is less than 100 nM in test [1], less than 100 nM in test [2] and 100 to 1000 nM in test [3].

For `CC(C)Nc1nc(Nc2cc(F)cc(S(C)(=O)=O)c2)nc(-c2cccc(C(C)(F)F)n2)n1` [Compound 613, 6-(6-(1,1-difluoroethyl)pyridin-2-yl)-N2-(3-fluoro-5-(methylsulfonyl)phenyl)-N4-isopropyl-1,3,5-triazine-2,4-diamine], the IC50 in test [1] was less than 100 nM; in test [2], less than 100 nM; in test [3] it was 100 to 1000 nM.

For the compound `CC(C)Nc1nc(Nc2cc(Cl)cc(S(C)(=O)=O)c2)nc(-c2cccc(C(C)(F)F)n2)n1` [Compound 614, N2-(3-chloro-5-(methylsulfonyl)phenyl)-6-(6-(1,1-difluoroethyl)pyridin-2-yl)-N4-isopropyl-1,3,5-triazine-2,4-diamine], the IC50 is less than 100 nM in test [1], less than 100 nM in test [2] and 100 to 1000 nM in test [3].

Regarding `CC(C)(C)Nc1nc(Nc2cc(Cl)cc(S(C)(=O)=O)c2)nc(-c2cccc(C(C)(F)F)n2)n1` [Compound 615, N2-(tert-butyl)-N4-(3-chloro-5-(methylsulfonyl)phenyl)-6-(6-(1,1-difluoroethyl)pyridin-2-yl)-1,3,5-triazine-2,4-diamine], the values for the IC50 in test [1], in test [2] and in test [3] were less than 100 nM, 100 to 1000 nM and 100 to 1000 nM, respectively.

As to `CC(C)(C)Nc1nc(Nc2cc(F)cc(S(C)(=O)=O)c2)nc(-c2cccc(C(C)(F)F)n2)n1` [Compound 616, N2-(tert-butyl)-6-(6-(1,1-difluoroethyl)pyridin-2-yl)-N4-(3-fluoro-5-(methylsulfonyl)phenyl)-1,3,5-triazine-2,4-diamine], the IC50 is less than 100 nM in test [1], less than 100 nM in test [2] and 100 to 1000 nM in test [3].

Consider `N#CC1(c2cc(Nc3nc(NCC4CC4)nc(-c4cccc(C(F)(F)F)n4)n3)ccn2)CC1` [Compound 617, 1-(4-((4-((cyclopropylmethyl)amino)-6-(6-(trifluoromethyl)pyridin-2-yl)-1,3,5-triazin-2-yl)amino)pyridin-2-yl)cyclopropanecarbonitrile], for which the values for the IC50 in test [1], in test [2] and in test [3] were less than 100 nM, less than 100 nM and 100 to 1000 nM, respectively.

On to `CC(F)(F)c1cccc(-c2nc(NCC3CC3)nc(Nc3ccnc(C(C)(C)C#N)c3)n2)n1` [Compound 618, (4-((4-((cyclopropylmethyl)amino)-6-(6-(1,1-difluoroethyl)pyridin-2-yl)-1,3,5-triazin-2-yl)amino)pyridin-2-yl)-2-methylpropanenitrile], for which the figures for the IC50 in test [1], in test [2] and in test [3] were less than 100 nM, less than 100 nM and 100 to 1000 nM, respectively.

As to `CC(F)(F)c1cccc(-c2nc(NCC3CC3)nc(Nc3ccnc(C4(C#N)CC4)c3)n2)n1` [Compound 619, 1-(4-((4-((cyclopropylmethyl)amino)-6-(6-(1,1-difluoroethyl)pyridin-2-yl)-1,3,5-triazin-2-yl)amino)pyridin-2-yl)cyclopropanecarbonitrile], the figures for the IC50 in test [1], in test [2] and in test [3] were less than 100 nM, less than 100 nM and 100 to 1000 nM, respectively.

As for `CC(C)(O)CNc1nc(Nc2cncc(F)c2)nc(-c2ccccc2F)n1` [Compound 621, 1-(4-(2-fluorophenyl)-6-(5-fluoropyridin-3-ylamino)-1,3,5-triazin-2-ylamino)-2-methylpropan-2-ol], the IC50 in test [1] lay within 100 to 1000 nM; in test [2] it was 1000 to 10000 nM; in test [3], 100 to 1000 nM.

In the case of `CC(C)(O)CNc1nc(Nc2ccc(F)nc2)nc(-c2ccccc2F)n1` [Compound 622, 1-(4-(2-fluorophenyl)-6-(6-fluoropyridin-3-ylamino)-1,3,5-triazin-2-ylamino)-2-methylpropan-2-ol], the IC50 in test [1], in test [2] and in test [3] was 100 to 1000 nM in each case.

Regarding `CC(C)(O)CNc1nc(Nc2ccnc(F)c2)nc(-c2ccccc2F)n1` [Compound 623, 1-(4-(2-fluorophenyl)-6-(2-fluoropyridin-4-ylamino)-1,3,5-triazin-2-ylamino)-2-methylpropan-2-ol], the IC50 in test [1] is 100 to 1000 nM; in test [2], 1000 to 10000 nM; in test [3], 100 to 1000 nM.

For the compound `COc1cccc(-c2nc(Nc3ccnc(C(F)(F)F)c3)nc(NC3COC3)n2)c1F` [Compound 624, 6-(2-Fluoro-3-methoxy-phenyl)-N-oxetan-3-yl-N′-(2-trifluoromethyl-pyridin-4-yl)-[1,3,5]triazine-2,4-diamine], the IC50 is less than 100 nM in test [1], 100 to 1000 nM in test [2] and 100 to 1000 nM in test [3].

Take `Fc1cncc(Nc2nc(NC3COC3)nc(-c3ccccc3F)n2)c1` [Compound 625, 6-(2-Fluoro-phenyl)-N-(5-fluoro-pyridin-3-yl)-N′-oxetan-3-yl-[1,3,5]triazine-2,4-diamine]: the IC50 in test [1] was less than 100 nM; in test [2] it was 100 to 1000 nM; in test [3], less than 100 nM.

For the compound `Fc1ccc(Nc2nc(NC3COC3)nc(-c3ccccc3F)n2)cn1` [Compound 626, 6-(2-Fluoro-phenyl)-N-(6-fluoro-pyridin-3-yl)-N′-oxetan-3-yl-[1,3,5]triazine-2,4-diamine], the IC50 in test [1] was in the range of 100 to 1000 nM; in test [2] it was 1000 to 10000 nM; in test [3] it was 100 to 1000 nM.

Take `Fc1ccccc1-c1nc(Nc2ccnc(C(F)(F)F)c2)nc(NC2COC2)n1` [Compound 627, 6-(2-Fluoro-phenyl)-N-oxetan-3-yl-N′-(2-trifluoromethyl-pyridin-4-yl)-[1,3,5]triazine-2,4-diamine]: the IC50 in test [1], in test [2] and in test [3] was less than 100 nM each time.
